Data on 21 molecules can be found in patent US5968940A, “Retinoids and methods of use of same” (priority 1996, dated 1999).

Each structure is given as a SMILES string.

For one series, the system named is HL-60 cells. In words: MTT assay, inhibition of HL-60 cells. Format: cell-based, human. The conditions noted are these: Homo sapiens; HL-60, Table 15. The procedure:
Human cancer cell lines (KB, A2780, MCF-7, HL-60, A549) were used. For a monolayer culture, 0.5 ml of trypsin solution ([…]) was added to the flasks for digestion. Microtiter plates (96 well) were used for the cell culture and 200 μl of cell suspension (1200 tumor cells) were placed in each well and incubated at 37° C. for 24 hours. Following the addition of the test compound, the control and treated flasks were placed in a CO2 incubator for 5 day culture. For the MTT assay, 200 μl of MTT solution (5 mg in 10 ml of phosphate buffer) plus the medium were added and incubated for another 4 hours. Following incubation, the supernatant was discarded and 200 μl of DMSO was added to each well. With a mild agitation the OD values were determined by the MR 700 Elisa at 570 nm (reference wavelength was 450 nm). The ED50 of the compound and tumor cell survival rate [formula] as percent inhibition were calculated.
(§1) The protocols of Examples 14 and 21 were used, for the NBT and MTT assays, respectively.
Background: Tetrazolium assays rely on reduction of a dye to a coloured formazan, in cell work by metabolically active cells.

In series [1] the test system is Human promyelocytic leukemia HL-60 cells. Kind of series: Cell differentiation of HL-60 cells, nitroblue tetrazolium (NBT) reduction / morphology. Type of series: cell-based. On the procedure: Human promyelocytic leukemia HL-60 cells were cultured in RPMI-1640 medium supplemented by 10% heat-inactivated calf serum and 100 U/ml of penicillin plus 100 μg/ml of streptomycin. The flasks containing cells and medium were incubated in an incubator with 5% CO2 at 37° C. Log phase cells were seeded into the medium at a concentration of 1.2×10^5to 1.4×10^5 cells per ml and cultured in flasks containing 5 ml of medium. Each group consisted of three flasks. Different concentrations of coumarin-retinoids were added. At intervals following the addition of coumarin-retinoids to the cultures, a small portion of cells was removed and live cells were counted under a light microscope using a dye-exclusionmethod with trypan blue. Cell differentiation was judged in terms of morphology and nitroblue tetrazolium (NBT) reduction.
For a determination of NBT reducing activity, a portion of the coumarin-retinoid-treated cells was removed at intervals following treatment and centrifuged. After centrifugation, 0.5 ml of 0.1% NBT (containing 100 ng TPA) was added to each tube. The contents of the test tubes were then incubated for 1 hour at 37° C. Cell smears were prepared from the cell sediment and stained using the Wright-Giemsa technique. For each smear prepared, 200 cells were isolated for examination under a light microscope with an oil immersion lens. Cells stained with blue-black granules were considered NBT-positive cells. The 50% differentiation or effective concentration (ED50 or EC50) is shown in terms of molar (M) concentration of the […] tested.
For a determination of cell morphology, a cell smear was prepared at intervals following treatment of cells for each coumarin-retinoid concentration group using the Wright-Giemsa stain technique. Stained cells were counted and classified under a light microscope with an oil immersion lens. After treatment with coumarin-retinoids, the morphological development of HL-60 cells proceeded toward mature granulocytes. This development was manifested by decreased cell volume; a lower nuclei to cytoplasm ratio; smaller or missing nuclei; concentration of chromatin; and the appearance of a certain proportion of intermediate and late granuloblasts (progranulocytes), elongated rod granulocytes, and granulocytes with branched nuclei.
as §1

The subject of a further series is fetus absorption in mice. Kind of series: Effect on fetus absorption in mice. Type of series: in vivo. The procedure: (§2) Female mice were examined by vaginal smear the morning after being caged with male mice, and if sperm or a vaginal plug was discovered, then the mice were determined to be pregnant. The retinoids were administered at the dosage indicated starting on the seventh day of pregnancy and continued once a day for the next ten days. On the 20th day after the female mice were determined to be pregnant, they were sacrificed by cervical dislocation. Both sides of the uterus were checked and the number of living embryos, dead embryos, and absorbed embryos were counted. The living embryos were further examined for bone abnormalities.

Series [2] has as its system bone abnormalities in mouse fetus. Kind of series: Bone abnormalities in mouse fetus. Type of series: in vivo. The procedure: as §2
After the embryos became transparent, they were dissected and their skeletons were checked by observation under a microscope.

Another series deals with chondrosarcoma. Kind of series: Growth of chondrosarcoma in rats. Type of series: in vivo. The note with it: for Body Weight final: in g (unit assumed). The text has this:
Transplantable chondrosarcomas obtained from Dr. Trown, Hoffman--La Roche Institute of Molecular Biology and Wistar rats obtained from the Breeding Center of Experimental Animals, Chinese Academy of Medical Sciences were used. According to the routine transplantation protocol as described in Cancer Treatment Reports 60(11):1647-1653 (1976) where the small pieces of chondrosarcoma tumor were implanted subcutaneously in the right inguinal region of rats using a trocar. Tumor-bearing rats were randomized to a control group and a treated group. Each group consisted of ten rats. […] Sixty days after transplantation, the rats were sacrificed and the tumor weight was determined. The inhibition rate was calculated according to the following formula: [formula]

On to `CCCCCCc1cc2c(C)cc(=O)oc2cc1OC(=O)/C=C(C)/C=C/C=C(C)/C=C/C1=C(C)CCCC1(C)C` [Compound I-34, 4-methyl-6-hexyl-7-retinoyloxy-coumarin], for which, in the series with HL-60 cells, the 50% effective concentration (EC50) (commonly the concentration needed to bring the measured effect to its halfway point) is greater than 10 µM.

Take `CC(=O)c1cc2c(C)cc(OC(=O)/C=C(C)/C=C/C=C(C)/C=C/C3=C(C)CCCC3(C)C)cc2oc1=O` [Compound I-2]: the entries for the “NBT (+) %” value in series [1] (10^-5 M), in series [1] (10^-6 M) and in series [1] (10^-7 M) were 84%, 38% and 2%, respectively.

As for `CCOC(=O)c1cc2ccc(OC(=O)/C=C(C)/C=C/C=C(C)/C=C/C3=C(C)CCCC3(C)C)c(C)c2oc1=O` [Compound I-15], the “NBT (+) %” value is listed as 93% in series [1] (10^-5 M), 84% in series [1] (10^-6 M), 46% in series [1] (10^-7 M) and 12% in series [1] (10^-8 M).

With `CCOC(=O)c1cc(OC(=O)/C=C(C)/C=C/C=C(C)/C=C/C2=C(C)CCCC2(C)C)cc2oc(=O)c(C(C)=O)cc12` [Compound I-11, 3-acetyl-5-ethoxycarbyl-7-retinoyloxy-coumarin], the “NBT (+) %” value in series [1] (10^-4 M) was 77%; in series [1] (10^-5 M), 72%; in series [1] (10^-6 M) it was 49%; in series [1] (10^-7 M), 8%.

For `CC(=O)c1cc2ccc(OC(=O)/C=C(C)/C=C/C=C(C)/C=C/C3=C(C)CCCC3(C)C)c(OC(=O)/C=C(C)/C=C/C=C(C)/C=C/C3=C(C)CCCC3(C)C)c2oc1=O` [Compound I-9], the “Fetus Absorption, absorbed number/implanted number” value is given as 0/113 with fetus absorption in mice (20 mg/kg once a day from day 7 of pregnancy) and 0/119 with fetus absorption in mice (40 mg/kg once a day from day 7 of pregnancy). Moreover, the “NBT (+) %” value in series [1] (10^-5 M) is given as 96%; in series [1] (10^-6 M), 88%; in series [1] (10^-7 M), 55%; in series [1] (10^-8 M), 31%. The “Delayed Calcification, Occipital delay/fetus number” value is reported as 0/75 in series [2] (20 mg/kg) and 3/77 in series [2] (40 mg/kg). For the same molecule, the “Delayed Calcification, Sternum delay/fetus number” value in series [2] (20 mg/kg) is 0/75; in series [2] (40 mg/kg), 2/77.

In the case of `CCCCCCCCCCCCOC(=O)c1cc(OC(=O)/C=C(C)/C=C/C=C(C)/C=C/C2=C(C)CCCC2(C)C)c(OC(=O)/C=C(C)/C=C/C=C(C)/C=C/C2=C(C)CCCC2(C)C)c2oc(=O)c(C(=O)OCC)cc12` [Compound I-12], the “NBT (+) %” value in series [1] (10^-5 M) came to 82%; in series [1] (10^-6 M), 47%; in series [1] (10^-7 M) it was 30%; in series [1] (10^-8 M), 0%; in series [1] (10^-9 M) it was 0%.

Molecule `CC1=C(/C=C/C(C)=C/C=C/C(C)=C/C(=O)Oc2ccc3c(C)cc(=O)oc3c2OC(=O)/C=C(C)/C=C/C=C(C)/C=C/C2=C(C)CCCC2(C)C)C(C)(C)CCC1` [Compound I-36, 4-methyl-7,8-diretinoyloxy-coumarin] returned an EC50 in the series on HL-60 cells of 3.2 µM.

With `CC1=C(/C=C/C(C)=C/C=C/C(C)=C/C(=O)Oc2cc3oc(=O)c(C(N)=O)cc3cc2Cl)C(C)(C)CCC1` [Compound I-27], the “NBT (+) %” value in series [1] (10^-5 M) was found to be 88%; in series [1] (10^-6 M) it was 80%; in series [1] (10^-7 M) it was 17%.

As to `CCOC(=O)c1cc2ccc(OC(=O)/C=C(C)/C=C/C=C(C)/C=C/C3=C(C)CCCC3(C)C)cc2oc1=O` [Compound I-17], the entries for the “NBT (+) %” value in series [1] (10^-5 M), in series [1] (10^-6 M) and in series [1] (10^-7 M) were 84%, 54% and 2%, respectively.

`CC(=O)c1cc2c(COC(=O)/C=C(C)/C=C/C=C(C)/C=C/C3=C(C)CCCC3(C)C)cc(OC(=O)/C=C(C)/C=C/C=C(C)/C=C/C3=C(C)CCCC3(C)C)cc2oc1=O` [Compound I-7]: the “NBT (+) %” value in series [1] (10^-5 M) amounted to 85%; in series [1] (10^-6 M), 65%; in series [1] (10^-7 M) it was 12%.

As for `CC1=C(/C=C/C(C)=C/C=C/C(C)=C/C(=O)Oc2cc(=O)oc3ccc(C)cc23)C(C)(C)CCC1` [Compound I-35, 4-retinoyloxy-6-methyl-coumarin], in the series on HL-60 cells, the concentration giving a half-maximal response (EC50) worked out at 2.6 µM.

On to `CC1=C(/C=C/C(C)=C/C=C/C(C)=C/C(=O)Oc2cc(=O)oc3ccc(C(C)(C)C)cc23)C(C)(C)CCC1` [Compound I-28, 4-retinoyloxy-6-t-butyl-coumarin], for which the EC50 with HL-60 cells is greater than 10 µM.

On to `CCOC(=O)c1cc2c(OC(=O)/C=C(C)/C=C/C=C(C)/C=C/C3=C(C)CCCC3(C)C)cc(OC(=O)/C=C(C)/C=C/C=C(C)/C=C/C3=C(C)CCCC3(C)C)cc2oc1=O` [Compound I-21], for which the “NBT (+) %” value in series [1] (10^-5 M) is on record as 94%; in series [1] (10^-6 M), 80%; in series [1] (10^-7 M), 41%; in series [1] (10^-8 M), 17%.

As to `CC(=O)c1cc2c(C(=O)O)cc(OC(=O)/C=C(C)/C=C/C=C(C)/C=C/C3=C(C)CCCC3(C)C)cc2oc1=O` [Compound I-4, 3-acetyl-5-carboxy-7-retinoyloxy coumarin], the “NBT (+) %” value in series [1] (10^-5 M) turned out to be 92%; in series [1] (10^-6 M) it was 84%; in series [1] (10^-7 M) it was 73%; in series [1] (10^-8 M) it was 15%.

Turning to `CC(=O)c1cc2ccc(OC(=O)/C=C(C)/C=C/C=C(C)/C=C/C3=C(C)CCCC3(C)C)c(C)c2oc1=O` [Compound I-3], the “NBT (+) %” value in series [1] (10^-5 M) turned out to be 88%; in series [1] (10^-6 M), 77%; in series [1] (10^-7 M) it was 12%.

In the series on HL-60 cells, `CC1=C(/C=C/C(C)=C/C=C/C(C)=C/C(=O)Oc2ccc3c(C)cc(=O)oc3c2C)C(C)(C)CCC1` [Compound I-30] showed a concentration for a half-maximal effect (EC50) greater than 10 µM.

As for `CC(=O)c1cc2c(OC(=O)/C=C(C)/C=C/C=C(C)/C=C/C3=C(C)CCCC3(C)C)c(C(=O)O)ccc2oc1=O` [Compound I-8], the “NBT (+) %” value in series [1] (10^-5 M) came out at 98%; in series [1] (10^-6 M) it was 69%; in series [1] (10^-7 M) it was 55%; in series [1] (10^-8 M), 34%.

In the case of `CC1=C(/C=C/C(C)=C/C=C/C(C)=C/C(=O)Nc2ncnc3c2ncn3C(=O)/C=C(C)/C=C/C=C(C)/C=C/C2=C(C)CCCC2(C)C)C(C)(C)CCC1` [II-A], the “Absorbed Number” value amounted to 10 with fetus absorption in mice (20 mg/kg, implanted number 141, 12 pregnant mice) and 17 with fetus absorption in mice (40 mg/kg, implanted number 181, 15 pregnant mice). Moreover, the Animals final in the series on chondrosarcoma (2 mg/kg × 10, initial 10) stood at 9; in the series on chondrosarcoma (5 mg/kg × 10, initial 10 (Table 14)) it was 9. The “Body Weight final” value is reported as 130.6 in the series on chondrosarcoma (2 mg/kg × 10, initial 74.1) and 129.2 in the series on chondrosarcoma (5 mg/kg × 10, initial 71.7 (Table 14)). The “Inhibition rate (%)” value in the series with chondrosarcoma (5 mg/kg × 10 (Table 14)) is listed as 62.6%. Further, in the series on chondrosarcoma (5 mg/kg × 10 (Table 14)), the “Tumor Weight” value came out at 4.0 grams.

Take `CCOC(=O)c1cc2cc(Cl)c(OC(=O)/C=C(C)/C=C/C=C(C)/C=C/C3=C(C)CCCC3(C)C)cc2oc1=O` [Compound I-18]: the results for the “NBT (+) %” value in series [1] (10^-5 M) and in series [1] (10^-6 M) were 44% and 8%, respectively.

Consider `CC1=C(/C=C/C(C)=C/C=C/C(C)=C/C(=O)Oc2cc(C(=O)O)c3cc(C(N)=O)c(=O)oc3c2)C(C)(C)CCC1` [Compound I-26], for which the “NBT (+) %” value in series [1] (10^-5 M) was 97%; in series [1] (10^-6 M) it was 91%; in series [1] (10^-7 M), 53%; in series [1] (10^-8 M), 34%.

In the case of `CCOC(=O)c1cc2c(C(=O)O)cc(OC(=O)/C=C(C)/C=C/C=C(C)/C=C/C3=C(C)CCCC3(C)C)cc2oc1=O` [Compound I-19], the figures for the “NBT (+) %” value in series [1] (10^-4 M), in series [1] (10^-5 M) and in series [1] (10^-6 M) were 92%, 84% and 5%, respectively.
